Results reported in patent publication US5574026A, “Methods for inhibiting angiogenesis proliferation of endothelial or tumor cells and tumor growth” (American Cyanamid Company, priority 1994, dated 1996).
Converted amounts (≈) assume the structure as drawn. Where a name gives a salt, the structure may show the parent alone.

What was measured:
Assay type in all cases: cell-based
[1] = tested on: Adult Bovine Aortic Endothelial (ABAE) cell line; assay: Antiproliferative activity in Adult Bovine Aortic Endothelial (ABAE) cell line, PROTOCOL 2 (48 h, sulforhodamine B); details: Bos taurus, ABAE cells
Procedure: The antiproliferative activity of the compounds of Formula I in an Adult Bovine Aortic Endothelial (ABAE) cell line and in Human Tumor cells lines is evaluated in three similar assays that measure growth inhibition. The assays are identified as follows: PROTOCOLS 1, 2, and 3 are described in greater detail hereinbelow. In general, according to PROTOCOLS 1 and 2, the target ABAE and/or Human Tumor cells are exposed to the compounds of Formula I for 48 hours. PROTOCOL 3 exposes ABAE cells to the compounds for 4 days. A detailed description of the Protocols is as follows: All cell lines are maintained in log phase in RPMI 1640 media, supplemented with 5% fetal calf serum, penicillin/streptomycin and 2 mM L-glutamine. Cultures are renewed after 20 passages with cells from a fresh stock of batch-frozen early passage cells. Cell lines are routinely checked for mycoplasma contamination (Genprobe). In a laminar flow hood, cells (1-5×10^4) are plated into 96-well microtiter plates in a volume of 0.1 ml/well with a bulk microtiter dispenser (Denley). […] At this concentration, dimethylsulfoxide has no effect on cell growth. Compounds are added using a Tomtec dispenser which simultaneously dispenses from one 96-well plate, containing the drug dilutions, to the plates containing the cells. […] The number of cells on the plate are quantitated using a protein dye-binding assay (Monks et al., 1991). […] The optical densities are read from an automatic spectrophotometric plate reader (Dynatech) directly to a main frame computer (VAX 8600). PROTOCOL 2 Antiproliferative Activity in Human Tumor and Adult Bovine Aortic Endothelial Cell Lines (ABAE) The antiproliferative activity of the compounds of Formula I is evaluated in a panel comprised of human tumor cell lines as listed in Protocol 1 as well as an adult bovine aortic endothelial cell line (ABAE). […] Table 1 presents the results depicting the antiproliferative activity of the compounds of Formula I against an ABAE cell line, as evaluated by PROTOCOL 2 and PROTOCOL 3. […]

[2] = tested on: A2780S; assay: Antiproliferative activity in human tumor cell lines, PROTOCOL 1 and PROTOCOL 2; details: ovarian tumor cell line A2780S, 48 hours, read-out: IC50
Procedure: (§1) The assays are identified as follows: PROTOCOLS 1, 2, and 3 are described in greater detail hereinbelow. In general, according to PROTOCOLS 1 and 2, the target ABAE and/or Human Tumor cells are exposed to the compounds of Formula I for 48 hours. PROTOCOL 3 exposes ABAE cells to the compounds for 4 days. A detailed description of the Protocols is as follows: Antiproliferative Activity in Human Tumor Cell Lines The antiproliferative activity of the compounds of Formula I of the present invention is evaluated in a panel comprised of human tumor cell lines. […] Cultures are renewed after 20 passages with cells from a fresh stock of batch-frozen early passage cells. Cell lines are routinely checked for mycoplasma contamination (Genprobe). In a laminar flow hood, cells (1-5×10^4) are plated into 96-well microtiter plates in a volume of 0.1 ml/well with a bulk microtiter dispenser (Denley). […] Compounds are added using a Tomtec dispenser which simultaneously dispenses from one 96-well plate, containing the drug dilutions, to the plates containing the cells. After two days of continuous drug exposure, 50% cold trichloroacetic acid (TCA) is added to 10% final concentration to fix the cells, and after 60 minutes at 4° C., the TCA is aspirated and the plates are washed 5 times with deionized water using a microtiter plate washer. […] A 0.4% solution of the dye, sulforhodamine B, in glacial acetic acid is added to the plates, and the plates are washed 5 times with 1% glacial acetic acid using the automatic plate washed. The bound stain is solubilized with 0.1 ml of 10 mMTris base. The optical densities are read from an automatic spectrophotometric plate reader (Dynatech) directly to a main frame computer (VAX 8600). Positive controls, that include standard chemotherapeutic drugs (i.e., adriamycin, cisplatin, etc.), are included in every experiment. Background optical density measurements (complete media--cells, and complete media+drug-cells) are automatically subtracted from the appropriate control and test wells. Mean values and standard errors are determined from duplicate wells. A measure is also made of the optical density at time when the drugs are added. The number of cells after treatment (P), as % of control, is calculated for every concentration of drug, as follows: [formula] wherein: T is optical density measurement for treated cells after 48 hours; C is optical density measurement for untreated cells after 48 hours; Co is optical density measurement for cells at the time of drug addition. IC50 of Growth inhibition is calculated from the sets of P values using the RS-1 data package (BBN Software). Antiproliferative Activity in Human Tumor and Adult Bovine Aortic Endothelial Cell Lines (ABAE) The antiproliferative activity of the compounds of Formula I is evaluated in a panel comprised of human tumor cell lines as listed in Protocol 1 as well as an adult bovine aortic endothelial cell line (ABAE). This assay is a modification of PROTOCOL 1.

[3] = tested on: HTB 161; assay: as above; details: HTB 161, 48 hours
Procedure: as §1

Row | Structure (SMILES) | IC50 [1] | IC50 [2] | IC50 [3]
1 | CN(C)[C@@H]1C(O)=C(C(N)=O)C(=O)[C@@]2(O)C(O)=C3C(=O)c4c(O)ccc(I)c4CC3CC12 (stereo partly drawn) [Example 10, [4S-(4α,12aα)]-4-(Dimethylamino)-4,4,4a,5,5a,6,11,12a-octahydro-3,10,12,12a-tetrahydroxy-7-iodo-1,11-dioxo-2-naphthacenecarboxamide] | 5 µg/mL (≈ 9.25 µM) | 0.7 µg/mL (≈ 1.3 µM) | 0.7 µg/mL (≈ 1.3 µM)
2 | CN(C)[C@@H]1C(O)=C(C(N)=O)C(=O)[C@@]2(O)C(O)=C3C(=O)c4c(O)ccc(Br)c4CC3CC12 (stereo partly drawn) [Example 8, [4S-(4α,12aα)]-7-Bromo-4-(dimethylamino)-1,4,4a,5,5a,-6,11,12a-octahydro-3,10,12,12a-tetrahydroxy-1,11-dioxo-2-naphthacenecarboxamide sulfate] | 2.4 µg/mL | 0.6 µg/mL | 0.6 µg/mL
3 | CN(C)c1ccc(O)c2c1C[C@H]1C[C@H]3[C@H](N(C)C)C(O)=C(C(N)=O)C(=O)[C@@]3(O)C(O)=C1C2=O [Minocycline, reference compound] | > 20 µg/mL | – | –
